Experimental data published in article PMC8470881, “Membrane Interactions of Latarcins: Antimicrobial Peptides from Spider Venom” (International Journal of Molecular Sciences, 2021).

Legend:
[1] = tested on: Bacillus subtilis subsp. spizizenii (DSM 347), Staphylococcus xylosus (DSM 20267), Escherichia coli (DSM 1116), Acinetobacter sp. (DSM 586); settings: for MIC (relative antimicrobial activity): relative activity over two Gram-positive and two Gram-negative strains; for MIC: irrespective of the bacterial strain (all four strains), Müller-Hinton medium, 20 h at 37 °C, maximum tested 256 µg/mL
Method: The effect of latarcins against four types of bacteria was determined using a minimum inhibitory concentration (MIC) assay on two Gram-positive strains (Bacillus subtilis subsp. spizizenii and Staphylococcus xylosus) and two Gram-negative strains (Escherichia coli and Acinetobacter sp.). Although the antimicrobial activity of latarcins is well documented, these experiments served to ensure that all studies were performed on molecules that show the expected antimicrobial activity.
The minimum inhibitory concentration (MIC) was determined as previously reported. For each latarcin, MIC was determined against two Gram-positive strains, namely Bacillus subtilis subsp. spizizenii (DSM 347) and Staphylococcus xylosus (DSM 20267), and two Gram-negative strains: Escherichia coli (DSM 1116) and Acinetobacter sp. (DSM 586). Bacterial cultures were grown in Müller-Hinton medium (MHM) as described previously, and peptides were dissolved in sterile water containing 10% DMSO. The stock solution of peptides with 1024 µg/mL was prepared such that serial dilutions of peptides (from 256 µg/mL to 2 µg/mL) in MHM were prepared in 96-well plates with the penultimate column without peptide to act as positive control (no peptide) and the final column as negative control (no bacteria). Bacterial stock suspension was made with an OD of 0.2 units at 550 nm. This stock solution was further diluted (1:1000 for Gram-negative bacteria and 1:100 for Gram-positive bacteria), and subsequently, 50 µL of the resulting bacterial suspension was added to the wells except the final well to give a final concentration of 10^6 colony-forming units per mL. Afterwards, the 96-well plates were incubated at 37 °C for 20 h, and cellular respiration was detected by adding 20 µL of resazurin solution (200 µg/mL) for an additional 2 h at the same temperature.

[2] = Circular dichroism spectroscopy (secondary structure); format: physicochemical; settings: for % Helix (CD): CD in DMPC/DMPG (7/3) SUVs, P/L = 1:50, 10 mM phosphate buffer pH 7.0, 30 °C, peptide 29.3 μM, deconvolution with CDSSTR, CONTIN-LL, SELCON-3
Description: Next, we compared the secondary structure of the full set of latarcins in the presence of lipid membranes, for which there are no complete data available yet.
The CD line shapes (Figure 2) were deconvoluted to estimate the secondary structure contributions (Supplementary Table S1) using the CDSSTR, CONTIN-LL, and SELCON-3 algorithms provided on the DICHROWEB online server as described previously. […] In peptides containing a high proportion of aromatic residues, such shifts of the long-wavelength band are well documented.
Small unilamellar vesicles (SUVs) for the CD measurements were prepared as follows. Weighed amounts of the lipid powders (DMPC, DMPG) were dissolved in chloroform/methanol 1/1 (v/v) to obtain 5 mg/mL stock solutions. For obtaining mixed DMPC/DMPG liposomes (7/3 molar ratio), the appropriate aliquots of these stock solutions were pipetted in a glass vial and thoroughly vortexed. The organic solvents were removed under a gentle stream of nitrogen gas, followed by 3 h of vacuum pumping in an exsiccator at a reduced pressure of 3-4 mbars to remove solvent residuals from the lipid film that had formed in the vial. The lipid film was dispersed by the addition of 10 mM phosphate buffer (PB) pH 7.0 and homogenized by vigorously vortexing for 10 × 1 min and 10 freeze–thaw cycles. SUVs were formed by sonication of the obtained multilamellar vesicles for 16 min in a strong ultrasonic bath (UTR 200, Hielscher, Germany). The temperature of the water in the ultrasonic bath was adjusted to 35 °C by circulating it through a thermostat to avoid overheating the samples. A weighed amount of the corresponding peptide was dissolved in water resulting in stock solutions with a peptide concentration of 0.5 mg/mL. For the final CD samples, each peptide stock solution was diluted to 29.3 μM and the corresponding lipid dispersion to 1.47 mM in 10 mM PB, resulting in a peptide-to-lipid (P/L) ratio of 1/50.
[…] The samples were measured in a 1-millimeter path length quartz glass cell (Suprasil, Hellma Müllheim, Germany) between 260 and 185 nm at 0.5 nm intervals. Spectra of the liposome samples were recorded at 30 °C, i.e., well above the phase transition temperature of the lipids, using a water-thermostated rectangular cell holder. Three repeat scans at a scan rate of 10 nm min^−1, 8 s response time, and 1 nm bandwidth were averaged for each sample, and the baseline spectrum of the respective peptide-free sample was subtracted from the sample spectrum. CD spectra were smoothened by a Savitzky-Golay filter (convolution width of 15 data points), which is implemented in the Jasco Spectra Analysis software.

human red blood cells = test: Hemolysis assay; settings: peptide concentration 256 µg/mL, 30 min, 37 °C
Method: A hemolysis assay was performed to determine the activity of latarcins against human red blood cells, allowing us to compare the results to those of previous experiments in which rabbit erythrocytes were used. The activity was determined for each latarcin as a function of increasing concentration, up to a maximum of 256 µg of peptides per mL. […] The percentage hemolysis of the other peptides was determined at the highest tested concentration of 256 µg/mL.
The influence of latarcins on human erythrocytes was determined by using a hemolysis assay modified from previously published methods. Blood was obtained from the blood bank of the local hospital in Karlsruhe and stabilized with citrate phosphate dextrose buffer. Erythrocyte suspension (5 mL) was taken up in Tris buffer (45 mL, 172 mM, pH 7.6) at room temperature, gently mixed, and centrifuged (1500 rpm, 10 min). The supernatant solution was removed, and Tris wash was repeated twice with 45 mL as above. The washed erythrocytes (1 mL) were suspended in 9 mL Tris buffer to make the stock cell suspension, which was then further diluted to 0.25% (v/v) at 37 °C before use. Peptide stock solutions were prepared with 1024 µg/mL in Tris buffer containing 10% DMSO, and serial dilutions were prepared in the range of 512 µg/mL to 2 µg/mL as described previously. For the positive control, Triton X-100 (200 µL of 0.2% v/v) was used, and as the negative control, Tris buffer (200 µL, 172 mM) was used. Erythrocyte stock cell suspension (200 µL) was added to each of the samples and incubated for 30 min at 37 °C with gentle shaking before determining the percentage of hemolysis as described previously.

Row | Substance | MIC (relative antimicrobial activity) [1] | % Helix (CD) [2] [%] | % Hemolysis (human red blood cells) [%] | MIC [1] | helical fold (CD) in buffer without lipids ([2]; 10 mM phosphate buffer pH 7, no lipids, 30 °C)
1 | H-QAFQTFKPDWNKIRYDAMKMQTSLGQMKKRFNL-OH [Ltc6a] | + | 65 | 3 |  | 
2 | H-GFFGKMKEYFKKFGASFKRRFANLKKRL-NH2 [Ltc5] | +++ | 85 | 27 | below 4 µg/mL | 
3 | H-SWKSMAKKLKEYMEKLKQRA-NH2 [Ltc3a] | ++ | 87 | 16 | 8 to 32 µg/mL | ca. 30%
4 | G E TF D K L K E K L K TFYQ K LV E K A ED L K G D L K A K LS-acid [Ltc7] | − | 89 | 2 | > 256 µg/mL | 
5 | H-GLKDKFKSMGEKLKQYIQTWKAKF-NH2 [Ltc4a] | ++ | 94 | 12 | 8 to 32 µg/mL | 
